Literature values, collected in patent US10813571B2, “Devices and methods for non-invasive monitoring of substance in a body” (TATA C[…] LIMITED, priority 2015, dated 2020).

Conditions: in the user's (smoker's) body; as known in the art

## CN1CCCC1c1cccnc1 (stereo not shown) [nicotine]
  half-life of nicotine in the body (t1/2): 1 to 2 h
